Where a name gives a salt, the structure may show the parent alone.

This is an account of results in patent US9586951B2 (FUJIFILM Corporation, priority 2013, dated 2017).

The experiment deals with T1, ATM (Homo sapiens, UniProt Q13315).
T1 construct: detecting phosphorylation of Chk2 in a human non-small cell lung cancer cell line NCI-H460 (ATCC company); host or cells: NCI-H460 human non-small cell lung cancer cells
T1 sequence (Q13315 whole entry): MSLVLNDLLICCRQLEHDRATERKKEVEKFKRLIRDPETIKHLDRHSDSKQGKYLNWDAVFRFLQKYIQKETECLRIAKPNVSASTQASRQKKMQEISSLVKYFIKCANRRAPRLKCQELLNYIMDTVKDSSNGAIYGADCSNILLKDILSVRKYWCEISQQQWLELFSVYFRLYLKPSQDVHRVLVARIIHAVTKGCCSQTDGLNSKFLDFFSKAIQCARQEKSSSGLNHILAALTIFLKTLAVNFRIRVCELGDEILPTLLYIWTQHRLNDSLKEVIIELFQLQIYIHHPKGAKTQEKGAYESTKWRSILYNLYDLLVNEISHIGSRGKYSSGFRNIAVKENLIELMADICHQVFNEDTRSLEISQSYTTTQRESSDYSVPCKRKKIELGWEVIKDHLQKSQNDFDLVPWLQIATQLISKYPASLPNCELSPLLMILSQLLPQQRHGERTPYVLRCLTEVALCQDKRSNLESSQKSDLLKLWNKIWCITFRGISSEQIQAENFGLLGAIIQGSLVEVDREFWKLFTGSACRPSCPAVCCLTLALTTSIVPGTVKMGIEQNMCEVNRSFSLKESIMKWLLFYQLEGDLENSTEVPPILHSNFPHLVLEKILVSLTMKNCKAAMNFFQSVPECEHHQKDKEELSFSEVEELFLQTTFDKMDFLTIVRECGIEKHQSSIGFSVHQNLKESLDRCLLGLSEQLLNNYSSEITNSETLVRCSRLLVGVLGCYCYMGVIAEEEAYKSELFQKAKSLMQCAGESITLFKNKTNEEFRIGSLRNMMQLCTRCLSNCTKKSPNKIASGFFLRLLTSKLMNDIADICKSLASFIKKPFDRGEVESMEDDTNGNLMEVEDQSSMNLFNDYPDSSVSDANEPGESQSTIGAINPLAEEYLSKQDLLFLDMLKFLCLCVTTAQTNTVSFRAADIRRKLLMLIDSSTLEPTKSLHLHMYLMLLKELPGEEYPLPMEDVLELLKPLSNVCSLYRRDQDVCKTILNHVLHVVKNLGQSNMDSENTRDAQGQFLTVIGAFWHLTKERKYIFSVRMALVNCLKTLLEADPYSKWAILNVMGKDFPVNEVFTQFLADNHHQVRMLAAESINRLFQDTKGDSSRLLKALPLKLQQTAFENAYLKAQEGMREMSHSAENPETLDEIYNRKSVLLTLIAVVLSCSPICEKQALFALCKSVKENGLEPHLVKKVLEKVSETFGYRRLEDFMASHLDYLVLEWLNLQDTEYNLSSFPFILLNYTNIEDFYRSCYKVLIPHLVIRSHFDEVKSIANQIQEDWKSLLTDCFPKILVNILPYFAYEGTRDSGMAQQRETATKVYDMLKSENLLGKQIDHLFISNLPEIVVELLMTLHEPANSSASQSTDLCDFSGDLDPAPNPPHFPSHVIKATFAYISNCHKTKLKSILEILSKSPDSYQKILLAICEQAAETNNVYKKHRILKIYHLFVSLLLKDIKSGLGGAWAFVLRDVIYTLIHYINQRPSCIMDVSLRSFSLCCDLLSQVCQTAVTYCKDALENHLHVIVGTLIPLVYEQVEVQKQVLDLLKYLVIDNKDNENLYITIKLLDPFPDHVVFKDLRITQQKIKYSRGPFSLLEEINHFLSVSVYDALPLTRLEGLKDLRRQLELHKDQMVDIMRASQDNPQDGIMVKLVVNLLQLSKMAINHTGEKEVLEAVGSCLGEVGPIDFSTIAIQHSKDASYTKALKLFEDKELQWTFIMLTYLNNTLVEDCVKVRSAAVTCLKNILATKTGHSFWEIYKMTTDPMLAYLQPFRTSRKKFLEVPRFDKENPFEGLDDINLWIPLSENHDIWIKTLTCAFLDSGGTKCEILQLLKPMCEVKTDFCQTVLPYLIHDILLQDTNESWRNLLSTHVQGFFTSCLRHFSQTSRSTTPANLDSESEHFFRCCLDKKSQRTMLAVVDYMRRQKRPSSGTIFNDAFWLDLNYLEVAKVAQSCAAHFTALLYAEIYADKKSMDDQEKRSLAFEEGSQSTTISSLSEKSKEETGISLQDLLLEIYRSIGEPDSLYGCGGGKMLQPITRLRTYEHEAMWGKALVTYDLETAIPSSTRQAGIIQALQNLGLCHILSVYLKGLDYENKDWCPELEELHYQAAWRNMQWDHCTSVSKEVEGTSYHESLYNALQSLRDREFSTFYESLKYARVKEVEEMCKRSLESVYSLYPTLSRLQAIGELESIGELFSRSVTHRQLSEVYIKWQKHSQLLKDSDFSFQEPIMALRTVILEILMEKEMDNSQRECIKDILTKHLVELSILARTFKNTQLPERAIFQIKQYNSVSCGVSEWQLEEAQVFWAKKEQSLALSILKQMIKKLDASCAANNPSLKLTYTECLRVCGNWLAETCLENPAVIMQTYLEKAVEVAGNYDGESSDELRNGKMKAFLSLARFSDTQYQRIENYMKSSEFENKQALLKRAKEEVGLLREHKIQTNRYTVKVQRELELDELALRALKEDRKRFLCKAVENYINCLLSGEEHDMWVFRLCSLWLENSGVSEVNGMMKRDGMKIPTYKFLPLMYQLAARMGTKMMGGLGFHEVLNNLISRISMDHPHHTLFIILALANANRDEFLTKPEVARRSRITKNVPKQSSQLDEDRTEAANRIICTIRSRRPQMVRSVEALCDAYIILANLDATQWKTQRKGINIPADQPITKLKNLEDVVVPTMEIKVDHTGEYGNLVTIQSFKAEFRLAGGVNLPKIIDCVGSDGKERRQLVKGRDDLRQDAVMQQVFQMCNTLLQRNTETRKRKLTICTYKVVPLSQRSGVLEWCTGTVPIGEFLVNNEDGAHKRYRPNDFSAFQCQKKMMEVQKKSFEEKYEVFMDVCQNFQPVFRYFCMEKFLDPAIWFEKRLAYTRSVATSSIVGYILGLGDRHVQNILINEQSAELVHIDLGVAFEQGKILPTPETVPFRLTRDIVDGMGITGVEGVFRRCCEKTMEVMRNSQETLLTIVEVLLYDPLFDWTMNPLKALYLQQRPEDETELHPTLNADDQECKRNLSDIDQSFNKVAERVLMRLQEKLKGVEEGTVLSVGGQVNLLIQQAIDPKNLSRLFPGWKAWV
The experiment can be described thus: ATM inhibition test (phosphorylation of Chk2 generated by ionizing radiation, AlphaScreen SureFire). It is filed as cell-based. As to conditions: phosphorylated Chk2 in NCI-H460 cells, ionizing radiation 8Gy, 1 hour after test compound treatment; read-out: ATM inhibitory activity. The procedure, abridged:
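NCI-H460 cells treated with compound for 1 hour, then irradiated with 8Gy and incubated 1 hour at 37° C. Phospho-Chk2 measured by AlphaScreen SureFire. Inhibition ratio calculated relative to untreated irradiated and non-irradiated wells.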
As for `CC(CNc1ccc2c(c1)Sc1cccc(-c3cc(N4CCOCC4)cc(=O)[nH]3)c1S2)CN1CCOCC1` (stereo not shown) [Example 8-4, 6-(7-((2-Methyl-3-morpholinopropyl)amino)thianthren-1-yl)-4-morpholinopyridin-2(1H)-one], the IC50 fell in the range of 0.1 to 0.5 µM.

With `CC(Nc1ccc2c(c1)Sc1cccc(-c3cc(N4CCOCC4)cc(=O)[nH]3)c1S2)c1ncc(CN2CCCC2)cn1` (stereo not shown) [Example 1-12-94, 4-Morpholino-6-(7-((1-(5-(pyrrolidin-1-ylmethyl)pyrimidin-2-yl)ethyl)amino)thianthren-1-yl)pyridin-2 (1H)-one], the IC50 was 0.1 to 0.5 µM.

As to `Cc1ccnc(C(C)Nc2ccc3c(c2)Cc2cccc(-c4cc(N5CCOCC5)cc(=O)[nH]4)c2O3)c1` (single isomer, unassigned) [Example 2-14-93-2, 6-(7-((1-(4-methylpyridin-2-yl)ethyl)amino)-9H-xanthen-4-yl)-4-morpholinopyridin-2(1H)-one], the IC50 is less than 0.1 µM.

As for `O=c1cc(N2CCOCC2)cc(-c2cccc3c2Sc2ccc(NCCN4CCCC4)cc2S3)[nH]1` [Example 1-10-11], the IC50 lay in the range of 0.1 to 0.5 µM.

For the compound `CC(Nc1ccc2c(c1)Cc1cccc(-c3cc(N4CCOCC4)cc(=O)[nH]3)c1O2)c1nccc(CF)n1` (single isomer, unassigned) [Example 2-14-94-2, 6-(7-((1-(4-(fluoromethyl)pyrimidin-2-yl)ethyl)amino)-9H-xanthen-4-yl)-4-morpholinopyridin-2(1H)-one], the IC50 is 0.1 to 0.5 µM.

For the compound `CC(C)(C)OC(=O)N1CCC(C#N)(Nc2ccc3c(c2)Cc2cccc(-c4cc(N5CCOCC5)cc(=O)[nH]4)c2O3)CC1` [Example 2-26, tert-butyl 4-cyano-4-((5-(4-morpholino-6-oxo-1,6-dihydropyridin-2-yl)-9H-xanthen-2-yl)amino)piperidine-1-carboxylate], the IC50 was in the range of 0.5 to 2 µM.

For the compound `COc1ccncc1CN1CCC(Nc2ccc3c(c2)Cc2cccc(-c4cc(N5CCOCC5)cc(=O)[nH]4)c2O3)CC1` [Example 2-28-11, 6-(7-((1-((4-Methoxypyridin-3-yl)methyl)piperidin-4-yl)amino)-9H-xanthen-4-yl)-4-morpholino pyridin-2(1H)-one], the IC50 is 0.1 to 0.5 µM.

Consider `O=c1cc(N2CCOCC2)cc(-c2cccc3c2Sc2ccc(NCCN4CCC(O)CC4)cc2S3)[nH]1` [Example 1-10-8, 6-(7-((2-(4-Hydroxypiperidin-1-yl)ethyl)amino)thianthren-1-yl)-4-morpholino pyridin-2(1H)-one], for which the IC50 lay in the range of 0.5 to 2 µM.

With `O=c1cc(N2CCOCC2)cc(-c2cccc3c2Oc2ccc(NCc4cnccn4)cc2C3)[nH]1` [Example 2-3-5, 4-Morpholino-6-(7-((pyrazin-2-ylmethyl)amino)-9H-xanthen-4-yl)pyridin-2(1H)-one], the IC50 lay in the range of 0.1 to 0.5 µM.

Regarding `O=c1cc(N2CCOCC2)cc(-c2cccc3c2Sc2ccc(NC4CCCC4N4CCOCC4)cc2S3)[nH]1` (single isomer, unassigned) [Example 1-16-1-3, 4-morpholino-6-(7-((2-morpholinocyclopentyl)amino)thianthren-1-yl)pyridin-2(1H)-one], the IC50 was 0.1 to 0.5 µM.

In the case of `CCN(CC)CCNc1ccc2c(c1)Cc1cccc(-c3cc(N4CCOCC4)cc(=O)[nH]3)c1S2` [Example 3-4-4, 6-(7-((2-(Diethylamino)ethyl)amino)-9H-thioxanthen-4-yl)-4-morpholino pyridin-2(1H)-one], the IC50 was in the range of 0.5 to 2 µM.

As for `COC[C@H](CN1[C@H](C)CCC[C@@H]1C)Nc1ccc2c(c1)Sc1cccc(-c3cc(N4CCOCC4)cc(=O)[nH]3)c1S2` [Example 1-46-13, 6-(7-(((S)-1-((2R,6S)-2,6- Dimethylpiperidin-1-yl)-3-methoxypropan-2-yl)amino)thianthren-1-yl)-4-morpholino pyridin-2(1H)-one], the IC50 was 0.1 to 0.5 µM.

Consider `COc1cncc(CN2CCC(Nc3ccc4c(c3)Sc3cccc(-c5cc(N6CCOCC6)cc(=O)[nH]5)c3S4)CC2)c1` [Example 1-24-16, 6-(7-((1-((5-Methoxypyridin-3-yl)methyl)piperidin-4-yl)amino)thianthren-1-yl)-4-morpholinopyridin-2(1H)-one], for which the IC50 fell in the range of 0.1 to 0.5 µM.

As for `Cc1cnc(C(CN(C)C)Nc2ccc3c(c2)Sc2cccc(-c4cc(N5CCOCC5)cc(=O)[nH]4)c2S3)cn1` (stereo not shown) [Example 1-32, 6-(7-((2-(dimethylamino)-1-(5-methylpyrazin-2-yl)ethyl)amino)thianthren-1-yl)-4-morpholinopyridin-2(1H)-one], the IC50 lay within 0.1 to 0.5 µM.

For the compound `O=c1cc(N2CCOCC2)cc(-c2cccc3c2Oc2ccc(NC4CCN(CCCF)CC4)cc2C3)[nH]1` [Example 2-30-12, 6-(7-((1-(3-Fluoropropyl)piperidin-4-yl)amino)-9H-xanthen-4-yl)-4-morpholino pyridin-2(1H)-one], the IC50 was in the range of 0.5 to 2 µM.

Take `CC(Nc1ccc2c(c1)Sc1cccc(-c3cc(N4CCOCC4)cc(=O)[nH]3)c1S2)c1ccncn1` (stereo not shown) [Example 1-12-74, 4-Morpholino-6-(7-((1-(pyrimidin-4-yl)ethyl)amino)thianthren-1-yl)pyridin-2 (1H)-one]: the IC50 lay in the range of 0.1 to 0.5 µM.

In the case of `CC(C)(C)OC(=O)N1CCC(Nc2ccc3c(c2)Sc2cccc(-c4cc(N5CCOCC5)cc(=O)[nH]4)c2O3)CC1` [Example 4-8-3, tent-Butyl 4-((6-(4-morpholino-6-oxo-1,6-dihydropyridin-2-yl)phenoxathiin-2-yl)amino) piperidin-l-carboxylate], the IC50 was in the range of 0.1 to 0.5 µM.

Take `O=c1cc(N2CCOCC2)cc(-c2cccc3c2Oc2ccc(NC4CCN(CCc5ccccc5)C4)cc2S3)[nH]1` (stereo not shown) [Example 4-6-1, 4-Morpholino-6-(8-((1-phenethylpyrrolidin-3-yl)amino)phenoxathiin-4-yl)pyridin-2(1H)-one]: the IC50 fell in the range of 0.1 to 0.5 µM.

For `Nc1ccc(CCN2CCC(Nc3ccc4c(c3)Cc3cccc(-c5cc(N6CCOCC6)cc(=O)[nH]5)c3O4)CC2)cc1` [Example 2-31, hydrochloride of 6-(7-((1-(4-aminophenethyl)piperidin-4-yl)amino)-9H-xanthen-4-yl)-4-morpholinopyridin-2(1H)-one], the IC50 lay in the range of 0.1 to 0.5 µM.

On to `O=C(CN1CCOCC1)Nc1ccc2c(c1)Sc1cccc(-c3cc(N4CCOCC4)cc(=O)[nH]3)c1S2` [Example 1-7-4, 2-Morpholino-N-(6-(4-morpholino-6-oxo-1,6-dihydropyridin-2-yl)thianthren-2-yl)acetamide], for which the IC50 was 0.1 to 0.5 µM.

As for “Ethyl 6-(((6-(4-morpholino- 6-oxo-1,6-dihydropyridin-2- yl)thianthren-2-yl)amino) methyl)picol [Example 1-12-56]”, the IC50 was in the range of 0.1 to 0.5 µM.

Regarding `CNc1ncc(C(C)Nc2ccc3c(c2)Cc2cccc(-c4cc(N5CCOCC5)cc(=O)[nH]4)c2O3)cn1` (stereo not shown) [Example 2-14-54, 6-(7-((1-(2-(Methylamino)pyrimidin-5-yl)ethyl)amino)-9H-xanthen-4-yl)-4-morpholino pyridin-2(1H)-one], the IC50 lay within 0.1 to 0.5 µM.

For `CC(=O)Nc1ccc(CCN2CCC(Nc3ccc4c(c3)Cc3cccc(-c5cc(N6CCOCC6)cc(=O)[nH]5)c3O4)CC2)cc1` [Example 2-32, N-(4-(2-(4-((5-(4-morpholino-6-oxo-1,6-dihydropyridin-2-yl)-9H-xanthen-2-yl)amino)piperidin-1-yl)ethyl)phenyl)acetamide], the IC50 was 0.1 to 0.5 µM.

`O=c1cc(N2CCOCC2)cc(-c2cccc3c2Sc2ccc(OCCN4CCOCC4)cc2S3)[nH]1` [Example 1-47, 4-Morpholino-6-(7-(2-morpholinoethoxy)thianthren-1-yl)pyridin-2(1H)-one]: the IC50 is 0.1 to 0.5 µM.

Turning to `Cc1cccc(C(CO)Nc2ccc3c(c2)Cc2cccc(-c4cc(N5CCOCC5)cc(=O)[nH]4)c2O3)n1` (single isomer, unassigned) [Example 2-14-92-1, 6-(7-((2-hydroxy-1-(6-methylpyridin-2-yl)ethyl)amino)-9H-xanthen-4-yl)-4-morpholinopyridin-2(1H)-one], the IC50 was in the range of 0.5 to 2 µM.

With `CNCC(Nc1ccc2c(c1)Sc1cccc(-c3cc(N4CCOCC4)cc(=O)[nH]3)c1S2)c1nccc(C)n1` (stereo not shown) [Example 1-16-5, 6-(7-((2-(Methylamino)-1-(4-methylpyrimidin-2-yl)ethyl)amino)thianthren-1-yl)-4-morpholinopyridin-2(1H)-one], the IC50 lay in the range of 0.5 to 2 µM.

For the compound `O=c1cc(N2CCOCC2)cc(-c2cccc3c2Sc2ccc(NCCN4CCC(F)(F)C4)cc2S3)[nH]1` [Example 1-10-2, 6-(7-((2-(3,3-Difluoropyrrolidin-1-yl)ethyl)amino)thianthren-1-yl)-4-morpholinopyridin-2(1H)-one], the IC50 was in the range of 0.1 to 0.5 µM.

With `O=c1cc(N2CCOCC2)cc(-c2cccc3c2Sc2ccc(NCCCN4CCOCC4)cc2S3)[nH]1` [Example 1-9-3, 4-Morpholino-6-(7-((3-morpholinopropyl)amino)thianthren-1-yl)pyridin-2(1H)-one], the IC50 was less than 0.1 µM.

Consider `CCN(C)CCC(Nc1ccc2c(c1)Sc1cccc(-c3cc(N4CCOCC4)cc(=O)[nH]3)c1S2)c1cnc(C)cn1` (single isomer, unassigned) [Example 1-51-10, 6-(7-((3-(Ethyl(methyl)amino)-1-(5-methylpyrazin-2-yl)propyl)amino)thianthren-1-yl)-4-morpholino pyridin-2(1H)-one], for which the IC50 is less than 0.1 µM.

In the case of `COc1cncc(CNc2ccc3c(c2)Cc2cccc(-c4cc(N5CCOCC5)cc(=O)[nH]4)c2N3C)c1` [Example 7, 6-(7-(((5-Methoxypyridin-3-yl)methyl)amino)-10-methyl-9,10-dihydroacridin-4-yl)-4-morpholinopyridin-2(1H)-one], the IC50 is 0.5 to 2 µM.

Turning to `COc1cc(C(C)Nc2ccc3c(c2)Cc2cccc(-c4cc(N5CCOCC5)cc(=O)[nH]4)c2O3)ccn1` (stereo not shown) [Example 2-14-26, 6-(7-((1-(2-Methoxypyridin-4-yl)ethyl)amino)-9H-xanthen-4-yl)-4-morpholino pyridin-2(1H)-one], the IC50 is less than 0.1 µM.
